Measured values: ChEMBL document CHEMBL1201862, “PubChem BioAssay data set” (2004)
Calls of active or inactive are those of the source.

Experiments:
[1] = MDA-MB-231 cell growth inhibition, dose response, cytotoxicity control for RAD54 inhibitor project, CellTiter-Glo luminescence, cherry-pick (AID 651692); format: functional, cell-based
[2] = target: T1, DNA repair and recombination protein RAD54-like (Homo sapiens, UniProt Q92698); assay: inhibitors of human RAD54 branch migration, confirmation, biochemical, fluorescence, cherry-picked samples, dose series (AID 651657); format: functional
T1 sequence (Q92698 whole entry): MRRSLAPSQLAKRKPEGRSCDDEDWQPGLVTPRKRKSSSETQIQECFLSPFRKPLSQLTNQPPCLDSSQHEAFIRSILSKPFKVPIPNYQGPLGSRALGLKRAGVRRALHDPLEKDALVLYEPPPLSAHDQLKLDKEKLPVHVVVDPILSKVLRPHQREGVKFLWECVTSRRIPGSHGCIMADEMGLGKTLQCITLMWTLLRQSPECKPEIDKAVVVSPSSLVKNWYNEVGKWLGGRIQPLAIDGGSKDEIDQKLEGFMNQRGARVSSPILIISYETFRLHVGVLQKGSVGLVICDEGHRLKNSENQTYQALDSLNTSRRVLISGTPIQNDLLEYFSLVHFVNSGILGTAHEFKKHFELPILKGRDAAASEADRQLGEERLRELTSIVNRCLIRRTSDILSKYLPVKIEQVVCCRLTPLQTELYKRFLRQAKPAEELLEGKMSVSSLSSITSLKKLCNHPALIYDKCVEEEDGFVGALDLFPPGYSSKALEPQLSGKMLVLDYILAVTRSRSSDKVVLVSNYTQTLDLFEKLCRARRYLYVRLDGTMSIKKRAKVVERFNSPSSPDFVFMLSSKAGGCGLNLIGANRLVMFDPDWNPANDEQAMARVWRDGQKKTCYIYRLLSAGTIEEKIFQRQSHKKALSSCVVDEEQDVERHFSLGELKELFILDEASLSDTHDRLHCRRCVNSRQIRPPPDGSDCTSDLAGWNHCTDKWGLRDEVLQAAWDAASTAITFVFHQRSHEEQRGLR

[3] = target: DNA dC->dU-editing enzyme APOBEC-3G (Homo sapiens, UniProt Q9HC16); format: functional;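 also: Dose-response counterscreen measuring inhibition of APOBEC3G DNA deaminase activity, run while confirming APOBEC3A inhibitors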
[4] = target: T2, DNA repair protein RAD52 homolog (Homo sapiens, UniProt P43351); format: functional, biochemical
T2 sequence (P43351 whole entry): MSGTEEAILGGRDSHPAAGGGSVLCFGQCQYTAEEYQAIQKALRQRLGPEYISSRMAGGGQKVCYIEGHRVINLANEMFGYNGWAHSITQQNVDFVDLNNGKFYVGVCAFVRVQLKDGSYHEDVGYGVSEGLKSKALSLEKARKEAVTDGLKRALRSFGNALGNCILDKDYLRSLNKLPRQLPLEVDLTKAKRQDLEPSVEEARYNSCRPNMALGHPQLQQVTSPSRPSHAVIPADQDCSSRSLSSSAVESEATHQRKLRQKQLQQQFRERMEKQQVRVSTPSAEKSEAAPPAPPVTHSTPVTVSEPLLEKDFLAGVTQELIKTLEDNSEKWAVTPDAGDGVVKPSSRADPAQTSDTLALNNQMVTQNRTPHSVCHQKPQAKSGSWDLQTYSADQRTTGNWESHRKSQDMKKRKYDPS

[5] = target: DNA dC->dU-editing enzyme APOBEC-3A (Homo sapiens, UniProt P31941); assay: Dose Response confirmation of small molecule APOBEC3A DNA Deaminase Inhibitors via a fluorescence-based single-stranded DNA deaminase assay. [Related pubchem assays (depositor defined):AID493011, AID493024]; format: functional
[6] = target: T3, Small ubiquitin-related modifier 2 (Homo sapiens, UniProt P61956); assay: SUMO2–SIM peptide binding inhibitors, dose response, selectivity assay for SUMO1 interaction inhibitor project, biochemical, fluorescence polarization, uHTS hits (AID 624385); format: functional; conditions: read-out: IC50_Mean
[7] = target: T4, Protein RecA (Mycobacterium tuberculosis, UniProt P9WHJ3); assay: Fluorescence Cell-Free Homogeneous Dose Retest to Identify Inhibitors of RecA-Intein Splicing Activity. [Related pubchem assays (depositor defined):AID2097, AID2223, AID489010, AID492950]; format: functional
T4 sequence (P9WHJ3 whole entry): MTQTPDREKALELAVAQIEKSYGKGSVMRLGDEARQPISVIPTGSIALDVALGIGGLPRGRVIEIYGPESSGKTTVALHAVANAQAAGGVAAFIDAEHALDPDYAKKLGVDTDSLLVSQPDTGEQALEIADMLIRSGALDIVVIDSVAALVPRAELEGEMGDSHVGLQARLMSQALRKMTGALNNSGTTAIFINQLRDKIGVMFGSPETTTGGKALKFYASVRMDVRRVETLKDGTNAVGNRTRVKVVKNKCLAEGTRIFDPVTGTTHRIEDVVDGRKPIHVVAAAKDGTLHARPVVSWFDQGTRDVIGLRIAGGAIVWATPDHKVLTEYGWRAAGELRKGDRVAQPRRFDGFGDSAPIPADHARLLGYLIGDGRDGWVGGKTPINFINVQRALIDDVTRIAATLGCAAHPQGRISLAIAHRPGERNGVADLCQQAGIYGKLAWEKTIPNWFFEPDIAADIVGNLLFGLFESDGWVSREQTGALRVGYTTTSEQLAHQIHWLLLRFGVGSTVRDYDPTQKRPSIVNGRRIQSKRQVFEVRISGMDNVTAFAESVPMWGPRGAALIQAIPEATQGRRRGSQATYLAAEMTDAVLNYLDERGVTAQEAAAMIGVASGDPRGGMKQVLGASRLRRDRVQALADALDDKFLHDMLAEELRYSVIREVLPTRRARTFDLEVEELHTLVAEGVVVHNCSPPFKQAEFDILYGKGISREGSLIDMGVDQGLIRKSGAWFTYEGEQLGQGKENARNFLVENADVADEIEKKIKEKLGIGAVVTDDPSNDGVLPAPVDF

[8] = target: T5, Small ubiquitin-related modifier 1 (Homo sapiens, UniProt P63165); assay: inhibitors of SUMO1 peptide binding, dose response, biochemical, fluorescence polarization, uHTS hits (AID 624382); format: functional; conditions: read-out: IC50_Mean
[9] = target: T5, Small ubiquitin-related modifier 1; assay: inhibitors of SUMO1 partner interactions, dose response, biochemical, FRET (AID 624383); format: functional; conditions: read-out: IC50_Mean
[10] = target: T3, Small ubiquitin-related modifier 2; assay: inhibitors of SUMO2 protein-protein interaction, dose response, selectivity assay for SUMO1 interaction inhibitor project, biochemical, FRET, human SUMO2, uHTS hits (AID 624384); format: functional; conditions: read-out: IC50_Mean
[11] = target: T6, Replicative DNA helicase DnaB (Mycobacterium tuberculosis, UniProt P9WMR3); assay: DnaB intein splicing inhibitors, dose response, biochemical, cell-free fluorescence (AID 449749); format: functional
T6 sequence (P9WMR3 whole entry): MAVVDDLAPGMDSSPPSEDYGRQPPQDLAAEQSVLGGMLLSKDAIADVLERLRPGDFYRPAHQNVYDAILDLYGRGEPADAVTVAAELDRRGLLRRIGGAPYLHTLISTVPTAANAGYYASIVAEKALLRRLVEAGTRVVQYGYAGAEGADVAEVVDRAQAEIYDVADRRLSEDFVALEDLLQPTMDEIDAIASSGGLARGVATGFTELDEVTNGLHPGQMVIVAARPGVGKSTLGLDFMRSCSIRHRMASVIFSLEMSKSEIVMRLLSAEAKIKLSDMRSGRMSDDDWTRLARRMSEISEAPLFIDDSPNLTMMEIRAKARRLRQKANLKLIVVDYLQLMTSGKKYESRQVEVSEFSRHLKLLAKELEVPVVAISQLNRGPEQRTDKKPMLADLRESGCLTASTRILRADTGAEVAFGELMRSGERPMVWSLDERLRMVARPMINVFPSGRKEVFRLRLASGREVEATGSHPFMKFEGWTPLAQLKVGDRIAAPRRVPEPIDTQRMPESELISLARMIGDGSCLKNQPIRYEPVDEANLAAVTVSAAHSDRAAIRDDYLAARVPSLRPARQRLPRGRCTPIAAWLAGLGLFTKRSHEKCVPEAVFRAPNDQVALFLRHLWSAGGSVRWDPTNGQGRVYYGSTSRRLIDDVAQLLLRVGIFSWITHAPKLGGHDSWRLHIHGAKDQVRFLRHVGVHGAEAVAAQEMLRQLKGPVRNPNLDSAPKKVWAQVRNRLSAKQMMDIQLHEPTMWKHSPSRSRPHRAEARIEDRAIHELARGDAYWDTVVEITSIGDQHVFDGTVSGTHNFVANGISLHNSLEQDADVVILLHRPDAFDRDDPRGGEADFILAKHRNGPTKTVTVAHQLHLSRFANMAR

[12] = target: Induced myeloid leukemia cell differentiation protein Mcl-1 (Homo sapiens, UniProt Q07820); format: functional
[13] = target: T7, Trace amine-associated receptor 1 (Homo sapiens, UniProt Q96RJ0); assay: Counterscreen for agonists of the human trace amine associated receptor 1 (hTAAR1): Fluorescence-based cell-based high throughput dose response assay to identify hTAAR1 agonist that also desensitize TAAR1 receptor response.; format: functional
T7 sequence (Q96RJ0 whole entry): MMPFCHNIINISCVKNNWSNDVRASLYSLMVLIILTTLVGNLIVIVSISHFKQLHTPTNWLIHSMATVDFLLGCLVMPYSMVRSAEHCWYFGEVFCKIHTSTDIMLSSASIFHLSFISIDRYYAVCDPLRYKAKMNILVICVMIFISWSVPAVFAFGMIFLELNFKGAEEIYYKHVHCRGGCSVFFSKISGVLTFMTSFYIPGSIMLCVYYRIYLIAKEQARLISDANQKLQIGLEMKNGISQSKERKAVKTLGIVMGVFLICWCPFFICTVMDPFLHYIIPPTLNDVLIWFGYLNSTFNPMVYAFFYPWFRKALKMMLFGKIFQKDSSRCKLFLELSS

[14] = cells; format: functional, cell-based
[15] = target: T7, Trace amine-associated receptor 1; assay: Fluorescence-based cell-based high throughput dose response assay to identify agonists of the human trace amine associated receptor 1 (TAAR1).; format: functional
[16] = cells; format: functional, cell-based; remark: listed apart in the source
[17] = target: T8, Scavenger receptor class B member 1 (Mus musculus, UniProt Q61009); assay: inhibitors of SR-BI dependent HDL uptake, dose response, ldlA[mSR-BI] CHO cells, fluorescence plate reader, dry powder, set 9 (AID 623880); format: functional, cell-based
[18] = target: T8, Scavenger receptor class B member 1; assay: inhibitors of SR-BI-mediated HDL uptake, dose response, cell-based, ldlA[mSR-BI] CHO, DiI fluorescence, dry powder, set 10 (AID 624029); format: functional
[19] = target: Botulinum neurotoxin type F (Clostridium botulinum, UniProt P30996); assay: High-throughput multiplex microsphere dose response for inhibitors of toxin protease, specifically Botulinum neurotoxin light chain F protease, compounds from Cherry Pick 02.; format: functional; conditions: read-out: EC50_MICROM
Chain of Botulinum neurotoxin type F (P30996 1-436 limits assumed): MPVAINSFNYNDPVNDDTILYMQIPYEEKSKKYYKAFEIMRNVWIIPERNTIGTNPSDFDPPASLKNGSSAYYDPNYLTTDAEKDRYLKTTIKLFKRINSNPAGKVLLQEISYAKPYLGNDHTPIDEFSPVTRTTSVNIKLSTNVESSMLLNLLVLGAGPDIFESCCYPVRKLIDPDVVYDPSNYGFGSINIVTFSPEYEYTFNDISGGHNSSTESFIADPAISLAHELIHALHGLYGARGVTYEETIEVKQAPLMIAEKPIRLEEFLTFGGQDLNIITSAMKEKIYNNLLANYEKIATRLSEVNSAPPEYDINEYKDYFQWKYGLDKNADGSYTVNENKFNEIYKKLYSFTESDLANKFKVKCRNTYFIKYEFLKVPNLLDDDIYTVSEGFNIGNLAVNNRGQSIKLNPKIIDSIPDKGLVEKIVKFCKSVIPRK

T3 sequence (P61956 whole entry): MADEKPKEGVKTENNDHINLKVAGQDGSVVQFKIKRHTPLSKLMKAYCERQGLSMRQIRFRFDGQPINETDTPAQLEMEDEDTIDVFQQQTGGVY
T8 sequence (Q61009 whole entry): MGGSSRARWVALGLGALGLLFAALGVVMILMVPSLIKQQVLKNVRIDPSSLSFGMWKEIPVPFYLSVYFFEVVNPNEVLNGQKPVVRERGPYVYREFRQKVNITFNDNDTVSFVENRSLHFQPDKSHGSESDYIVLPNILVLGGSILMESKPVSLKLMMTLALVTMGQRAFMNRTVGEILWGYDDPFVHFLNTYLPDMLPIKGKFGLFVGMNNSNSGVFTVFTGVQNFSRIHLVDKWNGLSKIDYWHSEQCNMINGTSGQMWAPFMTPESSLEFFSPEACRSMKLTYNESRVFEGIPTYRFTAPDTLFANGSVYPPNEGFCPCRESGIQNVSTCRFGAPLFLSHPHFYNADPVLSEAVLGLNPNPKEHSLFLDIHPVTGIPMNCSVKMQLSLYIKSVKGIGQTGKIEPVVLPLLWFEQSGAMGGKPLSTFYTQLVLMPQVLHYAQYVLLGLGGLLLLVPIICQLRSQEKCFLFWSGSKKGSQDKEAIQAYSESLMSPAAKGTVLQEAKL
T5 sequence (P63165 whole entry): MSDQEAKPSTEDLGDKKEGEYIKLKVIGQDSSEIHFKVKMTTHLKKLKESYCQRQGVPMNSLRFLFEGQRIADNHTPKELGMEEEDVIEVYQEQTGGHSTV
Chain of DNA dC->dU-editing enzyme APOBEC-3A (P31941 whole entry): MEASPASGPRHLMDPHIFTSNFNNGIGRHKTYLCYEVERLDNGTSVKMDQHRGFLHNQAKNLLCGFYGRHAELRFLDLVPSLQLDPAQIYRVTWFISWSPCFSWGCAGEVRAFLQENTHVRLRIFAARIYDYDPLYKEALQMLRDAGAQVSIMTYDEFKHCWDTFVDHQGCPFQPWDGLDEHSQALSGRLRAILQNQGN
Chain of DNA dC->dU-editing enzyme APOBEC-3G (Q9HC16 whole entry): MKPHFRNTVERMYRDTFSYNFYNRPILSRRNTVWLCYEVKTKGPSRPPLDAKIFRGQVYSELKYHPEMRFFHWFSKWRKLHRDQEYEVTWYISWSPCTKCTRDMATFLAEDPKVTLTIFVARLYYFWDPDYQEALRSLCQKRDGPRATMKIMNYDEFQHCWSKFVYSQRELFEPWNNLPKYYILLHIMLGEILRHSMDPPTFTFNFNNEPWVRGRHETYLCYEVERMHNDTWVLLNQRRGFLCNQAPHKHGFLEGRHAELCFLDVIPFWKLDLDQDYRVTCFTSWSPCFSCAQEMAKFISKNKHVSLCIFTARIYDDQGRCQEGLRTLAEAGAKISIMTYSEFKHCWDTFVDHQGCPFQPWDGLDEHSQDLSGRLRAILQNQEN
Chain of Induced myeloid leukemia cell differentiation protein Mcl-1 (Q07820 whole entry): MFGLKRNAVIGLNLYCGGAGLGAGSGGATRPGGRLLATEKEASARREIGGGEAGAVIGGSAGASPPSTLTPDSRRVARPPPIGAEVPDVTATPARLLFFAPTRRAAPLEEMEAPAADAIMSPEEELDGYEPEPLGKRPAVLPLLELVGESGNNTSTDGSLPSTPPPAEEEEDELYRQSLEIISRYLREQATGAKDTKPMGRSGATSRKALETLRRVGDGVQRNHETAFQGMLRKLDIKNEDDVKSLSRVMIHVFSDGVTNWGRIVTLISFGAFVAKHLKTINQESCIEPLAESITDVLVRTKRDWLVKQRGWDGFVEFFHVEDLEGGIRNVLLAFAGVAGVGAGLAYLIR

In the case of `CCN1CCN(c2ccc(NC(=O)c3cc4ccccc4cc3OC)cc2C)CC1`, the AC50 [1] is reported as 36.5 µM (active), the AC50 [2] is reported as 52.2 µM (active) and the IC50 [3] is reported as 6.67 µM (active). The AC50 [4] was 18.2 µM (active) and the IC50 [5] was 4.24 µM (active).

With `NC1=C2C(=O)c3ccccc3C(=O)C2=C(N)CC1` the IC50 [6] was 10.5 µM (active), the EC50 [7] was 3.57 µM (active) and the IC50 [8] was 7.71 µM (active). The IC50 [9] was 52.4 µM (inactive), the IC50 [10] was > 66 µM (inactive) and the AC50 [11] was 11.3 µM (active). The IC50 [12] was 1.8 µM (not active).

With `Fc1ccccc1N1CCN(C(c2cccs2)c2nnnn2CCc2ccccc2)CC1` (centres undefined) the IC50 [13] was 6.73 µM (active), the EC50 [14] was > 29.9 µM (inactive) and the EC50 [15] was 4.06 µM (active). The IC50 [16] was > 29.9 µM (inactive).

For `Cc1noc(C)c1S(=O)(=O)Nc1ccc2c(c1)C(=O)N([C@H](C)CO)C[C@@H](C)[C@H](CN(C)S(=O)(=O)c1ccc(Cl)cc1)O2`, the AC50 [17] was 0.158 µM (active) and the AC50 [18] was 0.123 µM (active).

For `COc1ccccc1Cc1c(-c2ccc(F)cc2)nc2cc(C)c(Br)c(C)n12`, the EC50 [19] was > 20 µM (inactive).
